From PubChem BioAssay AID248 (DTP/NCI, 2004)
Several values for one entry are separate records, joined by “and”; a condition that tells them apart may be missing. Equal values may be shown once. Toxic doses and inconclusive results are not listed.

System: L1210 leukemia ip in BDF1 mice, survival T/C
Assay: NCI In Vivo Anticancer Drug Screen. Data for tumor model L1210 Leukemia (intraperitoneal) in B6D2F1 (BDF1) mice
Conditions: endpoint: mean survival time, higher = longer survival
How it was run: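 Mice bearing the transplanted tumor received compound or vehicle. Survival of the treated group was divided by that of the vehicle-treated control group to give the ratio.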

[1] = dose: 100.0 mg/kg/injection, schedule: Q01DX001 (ip), vehicle: carboxymethylcellulose (CMC)
[2] = dose: 200.0 mg/kg/injection, schedule: Q01DX001 (ip), vehicle: carboxymethylcellulose (CMC)
[3] = dose: 400.0 mg/kg/injection, schedule: Q01DX001 (ip), vehicle: carboxymethylcellulose (CMC)
[4] = dose: 50.0 mg/kg/injection, schedule: Q01DX009 (ip), vehicle: saline with Tween-80
[5] = dose: 100.0 mg/kg/injection, schedule: Q01DX009 (ip), vehicle: saline with Tween-80
[6] = dose: 100.0 mg/kg/injection, schedule: Q04DX003 (ip), vehicle: saline
[7] = dose: 200.0 mg/kg/injection, schedule: Q04DX003 (ip), vehicle: saline
[8] = dose: 400.0 mg/kg/injection, schedule: Q04DX003 (ip), vehicle: saline
[9] = dose: 100.0 mg/kg/injection, schedule: Q04DX003 (ip), vehicle: saline with Tween-80
[10] = dose: 200.0 mg/kg/injection, schedule: Q04DX003 (ip), vehicle: saline with Tween-80
[11] = dose: 200.0 mg/kg/injection, schedule: Q01DX009 (ip), vehicle: saline with Tween-80
[12] = dose: 100.0 mg/kg/injection, schedule: Q04DX002 (ip), vehicle: saline with Tween-80
[13] = dose: 200.0 mg/kg/injection, schedule: Q04DX002 (ip), vehicle: saline with Tween-80

For O=c1[nH]cc(O)c(=O)[nH]1, the T/C (dose: 50.0 mg/kg/injection, schedule: Q01DX001 (ip), vehicle: carboxymethylcellulose (CMC)) was 100 % of control, the T/C (dose: 62.5 mg/kg/injection, schedule: Q#A X018 (ip), vehicle: saline) was 98 % of control and the T/C [1] was 102 % of control. For the same compound, the T/C (dose: 125.0 mg/kg/injection, schedule: Q#A X018 (ip), vehicle: saline) was 104 % of control, the T/C (dose: 176.0 mg/kg/injection, schedule: Q01DX Z (ip), vehicle: carboxymethylcellulose (CMC)) was 107 % of control and the T/C [2] was 107 % of control. For the same compound, the T/C (dose: 250.0 mg/kg/injection, schedule: Q#A X018 (ip), vehicle: saline) was 115 % of control, the T/C (dose: 267.0 mg/kg/injection, schedule: Q01DX015 (ip), vehicle: saline) was 115 % of control and the T/C (dose: 267.0 mg/kg/injection, schedule: Q01DX Z (ip), vehicle: carboxymethylcellulose (CMC)) was 120 % of control. The T/C [3] was 100 % of control, the T/C (dose: 400.0 mg/kg/injection, schedule: Q01DX015 (ip), vehicle: saline) was 120 % of control and the T/C (dose: 600.0 mg/kg/injection, schedule: Q01DX015 (ip), vehicle: saline) was 119 % of control.

C=Cc1cc[n+](CCCCC[n+]2ccc(C=C)cc2)cc1 was tested, and the T/C [1] was 96 % of control, the T/C [2] was 98 % of control and the T/C [3] was 93 % of control.

In the case of C1CCCC2(CC1)CCCCC2, the T/C (dose: 75.0 mg/kg/injection, schedule: Q01DX001 (ip), vehicle: saline with Tween-80) is reported as 94 % of control, the T/C (dose: 150.0 mg/kg/injection, schedule: Q01DX001 (ip), vehicle: saline with Tween-80) is reported as 90 % of control and the T/C (dose: 300.0 mg/kg/injection, schedule: Q01DX001 (ip), vehicle: saline with Tween-80) is reported as 95 % of control.

N/C(Cc1ccc(N)cc1)=N\O was tested, and the T/C (dose: 25.0 mg/kg/injection, schedule: Q01DX009 (ip), vehicle: saline with Tween-80) was 97 % of control, the T/C [4] was 101 % of control and the T/C [5] was 95 % of control.

With CCOc1ccn(CC(=O)Nc2nccs2)c(=O)n1 the T/C (dose: 100.0 mg/kg/injection, schedule: Q01DX009 (ip), vehicle: saline) was 100 % of control, the T/C [6] was 98 % of control and the T/C (dose: 200.0 mg/kg/injection, schedule: Q01DX009 (ip), vehicle: saline) was 103 % of control. The T/C [7] was 96 % of control, the T/C (dose: 400.0 mg/kg/injection, schedule: Q01DX009 (ip), vehicle: saline) was 105 % of control and the T/C [8] was 100 % of control.

With CC(=O)c1cccc(NC(=S)NC(=O)/C=C/c2ccccc2)c1 the T/C [4] was 92 % of control, the T/C [5] was 94 % of control and the T/C [9] was 100 % of control. For the same compound, the T/C [10] was 103 % of control.

In the case of Clc1ccc2c(c1)N(C1CCCN(Cc3ccccc3)C1)c1ccccc1S2 (centres undefined), the T/C [1] is reported as 94 % of control, the T/C [2] is reported as 94 % of control and the T/C [3] is reported as 90 % of control.

With O=C(O)COc1ccc(C2CCc3ccccc32)cc1 (centres undefined) the T/C (dose: 75.0 mg/kg/injection, schedule: Q01DX001 (ip), vehicle: Klucel (hydroxypropylcellulose) (HPC)) was 104 % of control, the T/C (dose: 150.0 mg/kg/injection, schedule: Q01DX001 (ip), vehicle: Klucel (hydroxypropylcellulose) (HPC)) was 101 % of control and the T/C (dose: 300.0 mg/kg/injection, schedule: Q01DX001 (ip), vehicle: Klucel (hydroxypropylcellulose) (HPC)) was 101 % of control.

With CN1CCC(=O)N1 the T/C (dose: 100.0 mg/kg/injection, schedule: Q01DX001 (ip), vehicle: saline) was 100 % of control, the T/C (dose: 200.0 mg/kg/injection, schedule: Q01DX001 (ip), vehicle: saline) was 100 % of control and the T/C (dose: 400.0 mg/kg/injection, schedule: Q01DX001 (ip), vehicle: saline) was 98 % of control.

With CN(C(=O)N(CCCl)N=O)C1CCC(C(=O)O)CC1 (centres undefined) the T/C (dose: 12.0 mg/kg/injection, schedule: Q01DX009 (ip), vehicle: alkali diluted with saline) was 95 % of control, the T/C (dose: 18.0 mg/kg/injection, schedule: Q01DX009 (ip), vehicle: alkali diluted with saline) was 103 % of control and the T/C (dose: 24.0 mg/kg/injection, schedule: Q01DX001 (ip), vehicle: saline + Tween-80 + alkali) was 93 % of control. The T/C (dose: 26.0 mg/kg/injection, schedule: Q01DX009 (ip), vehicle: alkali diluted with saline) was 103 % of control, the T/C (dose: 36.0 mg/kg/injection, schedule: Q01DX001 (ip), vehicle: saline + Tween-80 + alkali) was 98 % of control and the T/C (dose: 40.0 mg/kg/injection, schedule: Q01DX009 (ip), vehicle: alkali diluted with saline) was 111 % of control. The T/C (dose: 54.0 mg/kg/injection, schedule: Q01DX001 (ip), vehicle: saline + Tween-80 + alkali) was 98 % of control, the T/C (dose: 60.0 mg/kg/injection, schedule: Q01DX009 (ip), vehicle: alkali diluted with saline) was 119 % of control and the T/C (dose: 80.0 mg/kg/injection, schedule: Q01DX001 (ip), vehicle: saline + Tween-80 + alkali) was 104 % of control. The T/C (dose: 120.0 mg/kg/injection, schedule: Q01DX001 (ip), vehicle: saline + Tween-80 + alkali) was 113 % of control, the T/C (dose: 180.0 mg/kg/injection, schedule: Q01DX001 (ip), vehicle: saline + Tween-80 + alkali) was 121 % of control and the T/C (dose: 400.0 mg/kg/injection, schedule: Q01DX001 (ip), vehicle: saline + Tween-80 + alkali) was 180 % of control.

In the case of CCOC(=O)CCSC, the T/C [4] is reported as 100 % of control, the T/C [5] is reported as 97 % of control and the T/C [9] is reported as 93 % of control. For the same compound, the T/C [11] was 92 % of control and the T/C [10] was 96 % of control.

In the case of CCCCCCCCCCCCCCCOc1ccc(C=Nc2ccc(C)cc2)cc1, the T/C (dose: 100.0 mg/kg/injection, schedule: Q04DX003 (ip), vehicle: Klucel (hydroxypropylcellulose) (HPC)) is reported as 93 % of control, the T/C (dose: 200.0 mg/kg/injection, schedule: Q04DX003 (ip), vehicle: Klucel (hydroxypropylcellulose) (HPC)) is reported as 102 % of control and the T/C (dose: 400.0 mg/kg/injection, schedule: Q04DX003 (ip), vehicle: Klucel (hydroxypropylcellulose) (HPC)) is reported as 102 % of control.

With Cc1ccc(S(=O)(=O)OC/C(=C(/c2ccccc2)c2ccc(Cl)cc2)c2ccccc2)cc1 the T/C (dose: 6.25 mg/kg/injection, schedule: Q04DX003 (ip), vehicle: saline with Tween-80) was 96 % of control, the T/C (dose: 12.5 mg/kg/injection, schedule: Q04DX003 (ip), vehicle: saline with Tween-80) was 98 % of control and the T/C (dose: 25.0 mg/kg/injection, schedule: Q04DX003 (ip), vehicle: saline with Tween-80) was 95 % of control.

In the case of Nc1ccc(CCc2ccccc2)c(C(=O)O)c1, the T/C (dose: 50.0 mg/kg/injection, schedule: Q04DX003 (ip), vehicle: saline) is reported as 104 % of control, the T/C [6] is reported as 110 % of control and the T/C [7] is reported as 96 % of control.

For CC1(c2ccccc2)O[C@@H]2C[C@H]3[C@@H]4CCC5=CC(=O)C=C[C@]5(C)[C@@]4(F)[C@@H](O)C[C@]3(C)[C@]2(C(=O)CO)O1 (some centres undefined), the T/C (dose: 100.0 mg/kg/injection, schedule: Q01DX001 (sc), vehicle: steriod suspending solution) was 117 % of control, the T/C (dose: 200.0 mg/kg/injection, schedule: Q01DX001 (sc), vehicle: steriod suspending solution) was 98 % of control and the T/C (dose: 400.0 mg/kg/injection, schedule: Q01DX001 (sc), vehicle: steriod suspending solution) was 107 % of control.

For O=C(O)CCC(=O)Nc1cccc(C(F)(F)F)c1, the T/C (dose: 100.0 mg/kg/injection, schedule: Q01DX009 (ip), vehicle: Klucel (hydroxypropylcellulose) (HPC)) was 103 % of control, the T/C (dose: 200.0 mg/kg/injection, schedule: Q01DX009 (ip), vehicle: Klucel (hydroxypropylcellulose) (HPC)) was 105 % of control and the T/C (dose: 400.0 mg/kg/injection, schedule: Q01DX009 (ip), vehicle: Klucel (hydroxypropylcellulose) (HPC)) was 100 % of control.

In the case of CCCCCCCCC(C)C, the T/C [12] is reported as 100 % of control and the T/C [13] is reported as 97 % of control.

In the case of CC(=O)N(C)c1ccc(NC2=NCCO2)cc1, the T/C [9] is reported as 98 % of control, the T/C [10] is reported as 101 % of control and the T/C (dose: 400.0 mg/kg/injection, schedule: Q04DX003 (ip), vehicle: saline with Tween-80) is reported as 98 % of control.

C[n+]1cccc(S(=O)(=O)[O-])c1 was tested, and the T/C [6] was 104 % of control, the T/C [7] was 101 % of control and the T/C [8] was 101 % of control.

O=C(CCc1ccccc1)Nc1ccc(F)cc1 was tested, and the T/C (dose: 100.0 mg/kg/injection, schedule: Q01DX001 (ip), vehicle: saline with Tween-80) was 95 % of control, the T/C [5] was 97 % of control and 106 % of control and the T/C [12] was 94 % of control and 98 % of control. For the same compound, the T/C (dose: 200.0 mg/kg/injection, schedule: Q01DX001 (ip), vehicle: saline with Tween-80) was 95 % of control, the T/C [11] was 93 % of control and 95 % of control and the T/C [13] was 94 % of control and 102 % of control. The T/C (dose: 400.0 mg/kg/injection, schedule: Q01DX001 (ip), vehicle: saline with Tween-80) was 94 % of control, the T/C (dose: 400.0 mg/kg/injection, schedule: Q01DX009 (ip), vehicle: saline with Tween-80) was 98 % of control and 101 % of control and the T/C (dose: 400.0 mg/kg/injection, schedule: Q04DX002 (ip), vehicle: saline with Tween-80) was 94 % of control and 97 % of control.
